Reference: patent publication US12054449B2, “Phenylcarbamate crystalline form and method for manufacturing the same” (BIO-PHARM SOLUTIONS CO., LTD., priority 2021, dated 2024)
≈ marks a conversion by molar mass, not a printed value. Entries after “also recorded” stand apart in the source; their conditions may differ. Like-named read-outs stand apart in the source and are kept apart here.

Key:
Type in all cases: physicochemical
[1] = Log D (shake flask at pH 5) and Log P
[2] = Gravimetric vapor sorption (GVS)
Protocol: Sorption isotherms were obtained using an SMS DVS intrinsic water absorption analyzer controlled by SMS Analysis Suite software. A sample temperature was maintained at 25° C. throughout. Humidity was controlled by a mixed stream of dry and wet nitrogen with a total flow rate of 200 mL/min. The relative humidity was measured with a calibrated Rotronic probe (dynamic range: 1.0-100% RH) located near the sample. The weight change (mass relaxation) of the sample as a function of % RH was continuously monitored using a microbalance (accuracy±0.005 mg). 5 to 20 mg of the sample was stored in a prepared stainless steel mesh basket under atmospheric conditions.

[3] = Storage under stress humidity (40° C./75% RH or RT/97% RH, 7 days) with XRPD, UPLC, 1H NMR
[4] = Thermodynamic solubility by UPLC in biological media (FaSSGF, FaSSIF); details: thermodynamic from solid, 37° C., 24 h orbital shaker, all solids dissolved
Protocol: A thermodynamic solubility in water was determined by providing a suitable concentration of compound prepared by suspending a sufficient compound in water or buffer according to estimated solubilities of the medium and the compound. Quantification was done by UPLC with reference to a standard calibration curve. A solubility was calculated with QuanLynx using a peak area determined by the integration of a peak found at the same retention time as the main peak in the standard injection.
To measure the solubility of ED01748-006-001-00 Pattern 1, experiments were carried out in biological media (Fasted simulated gastric fluid (FaSSGF) and Fasted simulated intestinal fluid (FaSSIF)) at 37° C. […] each of samples was dispersed into each of four vials, 1 mL each of FaSSGF and FaSSIF was added to each of the two vials and incubated in an orbital shaker for 24 hours. After incubation, all solids in each sample were dissolved, and the solubility was measured as follows.

[5] = Competitive slurry experiment for Pattern 1 and Pattern 3; details: competitive slurries in DIPE and heptane, room temperature and 50° C.
Protocol: To investigate the relative thermodynamic stability of various crystalline form patterns at room temperature and 50° C., competitive slurry experiments were carried out.
A mixture of Pattern 1 and Pattern 3 (ED01748-028-003-00, 4×20 mg) was dispensed into vials. They were treated with 250 μL of a saturated solution of Pattern 1 (ED01748-006-001-00) in DIPE or heptane (50 mg of ED01748-006-001-00 was treated with DIPE or heptane and heated at 50° C., a portion was removed as needed, and the resulting product was filtered through a 0.45 μm syringe filter, thereby forming a slurry). The produced slurry was stirred at room temperature or 50° C. After analysis, the solid was returned to the vial, and an additional saturated solution was added as needed to maintain the slurry. After 4 days, the purity of the material was confirmed by UPLC.

[6] = Competitive slurry experiment for Pattern 1, Pattern 3, Pattern 6 and Pattern 11
Protocol: A mixture of Pattern 1 and Pattern 3 (ED01748-028-003-00, 10 mg each) was dispensed into four vials, and Pattern 6 (ED01748-034-002-00, 5 mg) and Pattern 11 (ED01748-037-002-00, 5 mg) were added to respective vials. Each sample was treated with 300 μL of a filtered saturated solution of Pattern 1 (ED01748-006-001-00) prepared in DIPE or heptane. The resulting slurries were stirred at room temperature and 50° C. A small sample was periodically removed and analyzed by)(RFD, followed by monitoring as described in the following table.
After analysis, the solid was returned to the vial, and a saturated solution was additionally injected as needed to maintain the slurries. After 25 days, the purity of the solid material obtained in the heptane experiment was confirmed by UPLC, and no significant decrease in purity was shown by UPLC.

[7] = Change of crystalline form on standing or drying (XRPD); details: left overnight on the XRPD disc under laboratory conditions
Protocol: XRPD patterns were detected by CuKα irradiation (30 kV, 10 mA) using a Bruker AXS D2 diffractometer. The analysis was performed using θ-θ geometry and a LynxEye detector at 5 to 42° 2θ with a step size of 0.024° 2θ at 0.1 sec/step.
Samples were run at ambient conditions and prepared as flat specimens using powder received without grinding. About 1 to 2 mg of the sample was lightly pressed on a silicon wafer to obtain a flat surface.

[8] = Melting and cooling of Pattern 1 (DSC A experiment; melting and rapid cooling), degradation by 1H NMR/UPLC
Protocol: A portion of ED01748-006-001-00 was heated in a differential scanning calorimeter at 10° C./min to 110° C., and then cooled to 30° C. at 50° C./min. The contents of a DSC pan were analyzed by ^1H NMR.
Each (about 10 mg) of two ED01748-006-001-00 samples was put into a vial, and then into a drying pistol which had been preheated to 110° C. for 10 minutes under ambient pressure. The molten sample was removed, followed by rapid cooling with dry ice. The glass material from the first sample was rapidly crystallized by impacting a part that characterized it. As a result of XRPD analysis, the glass material was identified as Pattern 1 (FIG. 7).

[9] = 110° C. for 10 minutes, rapid cooling with dry ice

## C[C@H](OC(N)=O)[C@@H](O)c1ccccc1Cl [ED01748-006-001-00, 1-(2-chlorophenyl)-(S)-1-hydroxypropyl-(S)-2-carbamate]
[1]
  logP: 1.32
[1]; shake flask
  logD: 1.32
[2]; after GVS experiment
  XRPD post GVS (change in form): no change in morphology; also recorded: Shows no change in form by XRPD post GVS
[2]; second sorption cycle, 0-90% RH, 25° C., listed as Pattern 1
  GVS mass increase: 0.14%
[3]; 40° C./75% RH
  1H NMR post storage at 40° C./75% RH for 7 days: Consistent with structure
  XRPD post storage at 40° C./75% RH for 7 days (change in form): no change in morphology; also recorded: Shows no change in form by XRPD post storage
[3]; 40° C./75% RH, initial UPLC purity 98.6%
  UPLC purity post storage at 40° C./75% RH for 7 days: 97.4%
[3]; 40° C./75% RH, listed as Pattern 1
  XRPD post storage at 40° C./75% RH for 7 days (change in form): no morphological change
[3]; RT/97% RH
  1H NMR purity post storage at RT/97% RH for 7 days: Consistent with structure
  XRPD post storage at RT/97% RH for 7 days (change in form): no change in morphology; also recorded: Shows no change in form by XRPD post storage
[3]; RT/97% RH, initial UPLC purity 98.6%
  UPLC purity post storage at RT/97% RH for 7 days: 97.7%
[3]; RT/97% RH, listed as Pattern 1
  XRPD post storage at RT/97% RH for 7 days (change in form): no morphological change
[4]; fasted simulated gastric fluid (FaSSGF), fassgf or other biorelevant, fasted simulated gastric fluid, read-out: FaSSGF solubility after 24 h
  solubility at 24 h: 16.8 mg/mL (≈ 73.3 mM)
[4]; fasted simulated intestinal fluid (FaSSIF), fassif, fasted simulated intestinal fluid, read-out: FaSSIF solubility after 24 h
  solubility at 24 h: 14.1 mg/mL (≈ 61.2 mM)
[5]
  Relative thermodynamic stability: more thermodynamically stable than Pattern 3
[6]; conclusion including heptane slurries, room temperature and 50° C., 25 days
  Relative thermodynamic stability: more thermodynamically stable than Pattern 11 and Pattern 6
[6]; in DIPE at room temperature and 50° C., after 1 day
  Relative thermodynamic stability: more thermodynamically stable than Pattern 3, Pattern 6 and Pattern 11
[7]
  Form by XRPD after being left overnight: Pattern 3
[8]; [9]
  Decomposition after melting and rapid cooling (1H NMR or UPLC): not significantly decomposed
  UPLC purity after melting and rapid cooling: 98.7%
[8]; heated 10° C./min to 110° C., cooled to 30° C. at 50° C./min
  Degradation after melting and cooling (1H NMR): no degradation or migration
